Reference: ChEMBL document CHEMBL3085629, “Highly functionalized 2-oxopiperazine-based peptidomimetics: an approach to PAR1 antagonists” (2013)
Activity calls are given as the source filed them. The calls are words filed in the database; no cut-off is given here.

Legend:
[1] = molecular target: T1, Proteinase-activated receptor 1 (Homo sapiens) (UniProt P25116); assay: Antagonist activity at PAR1 in human platelet rich plasma assessed as inhibition of SFLLRN-induced platelet aggregation at 150 uM after 5 mins by aggregometric analysis relative to control
T1 sequence (whole entry): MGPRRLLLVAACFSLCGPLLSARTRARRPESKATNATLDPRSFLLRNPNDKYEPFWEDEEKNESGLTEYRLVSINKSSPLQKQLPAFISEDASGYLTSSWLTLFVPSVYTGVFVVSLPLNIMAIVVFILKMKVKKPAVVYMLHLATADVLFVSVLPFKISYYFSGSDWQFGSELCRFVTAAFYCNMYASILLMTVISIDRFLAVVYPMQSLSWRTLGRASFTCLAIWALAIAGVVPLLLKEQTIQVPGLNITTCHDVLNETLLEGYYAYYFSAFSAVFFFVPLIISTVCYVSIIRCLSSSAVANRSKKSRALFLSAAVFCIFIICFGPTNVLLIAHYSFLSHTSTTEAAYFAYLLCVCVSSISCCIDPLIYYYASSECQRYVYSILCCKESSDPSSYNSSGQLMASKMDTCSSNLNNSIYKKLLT

HT-29 = assay: Cytotoxicity against human HT-29 cells after 48 hrs by sulforhodamine B assay; type: functional; settings: HT-29, 48 h
A549 = assay: Cytotoxicity against human A549 cells after 48 hrs by sulforhodamine B assay; type: functional; settings: A549, 48 h
MDA-MB-231 = assay: Cytotoxicity against human MDA-MB-231 cells after 48 hrs by sulforhodamine B assay; type: functional; settings: MDA-MB-231, 48 h

Row | SMILES | inhibition [1] | GI50 (HT-29) | GI50 (A549) | GI50 (MDA-MB-231)
1 | Cc1c(C)c(S(=O)(=O)/N=C(\N)NCCC[C@H]2C(=O)N(Cc3ccccc3)C[C@@H]([C@H](Cc3ccccc3)NC(=O)NCc3ccccc3)N2Cc2ccccc2)c(C)c2c1OC(C)(C)C2 | 57% |  |  | 
2 | Cc1c(C)c(S(=O)(=O)/N=C(\N)NCCC[C@H]2C(=O)N(Cc3ccccc3)C[C@H]([C@H](Cc3ccccc3)NC(=O)OC(C)(C)C)N2CC(=O)OC(C)(C)C)c(C)c2c1OC(C)(C)C2 | Active |  |  | 
3 | Cc1c(C)c(S(=O)(=O)/N=C(/N)NCCC[C@H]2C(=O)NC[C@H]([C@H](Cc3cn(C(=O)OC(C)(C)C)c4ccccc34)NC(=O)OC(C)(C)C)N2Cc2ccccc2)c(C)c2c1OC(C)(C)C2 |  | 3.78 µM | 4.89 µM | 4.44 µM
4 | Cc1c(C)c(S(=O)(=O)/N=C(\N)NCCC[C@H]2C(=O)N(Cc3ccccc3)C[C@@H]([C@H](Cc3c[nH]c4ccccc34)NC(=O)NCc3ccccc3)N2Cc2ccccc2)c(C)c2c1OC(C)(C)C2 | Active |  |  | 
5 | CC(C)(C)OC(=O)CN1[C@@H]([C@H](Cc2cn(C(=O)OC(C)(C)C)c3ccccc23)NC(=O)OC(C)(C)C)CNC(=O)[C@@H]1CCCCNC(=O)OC(C)(C)C | inactive | 3.09 µM | 4.57 µM | 2.29 µM
6 | Cc1c(C)c(S(=O)(=O)/N=C(/N)NCCC[C@H]2C(=O)N(Cc3ccccc3)C[C@H](CCc3ccccc3)N2Cc2ccccc2)c(C)c2c1OC(C)(C)C2 | Active |  |  | 
7 | CC(C)(C)OC(=O)NCCCC[C@H]1C(=O)NC[C@H]([C@H](Cc2cn(C(=O)OC(C)(C)C)c3ccccc23)NC(=O)OC(C)(C)C)N1Cc1ccccc1 | inactive | 4.58 µM | 4.86 µM | 2.92 µM
8 | Cc1c(C)c(S(=O)(=O)/N=C(\N)NCCC[C@H]2C(=O)N(Cc3ccccc3)C[C@H]([C@H](Cc3ccccc3)NC(=O)OC(C)(C)C)N2Cc2ccccc2)c(C)c2c1OC(C)(C)C2 | Active |  |  | 
9 | CC(C)(C)OC(=O)NCCCC[C@H]1C(=O)NC[C@@H]([C@H](Cc2cn(C(=O)OC(C)(C)C)c3ccccc23)NC(=O)OC(C)(C)C)N1Cc1ccccc1 | inactive | 4.45 µM | 5.56 µM | 4.58 µM
10 | CC(C)(C)OC(=O)NCCCC[C@H]1C(=O)N(Cc2ccccc2)C[C@@H]([C@H](Cc2cn(C(=O)OC(C)(C)C)c3ccccc23)NC(=O)OC(C)(C)C)N1Cc1ccccc1 | inactive | 3.83 µM | > 10 µM | 1.48 µM
11 | Cc1c(C)c(S(=O)(=O)/N=C(/N)NCCC[C@H]2C(=O)NC[C@H]([C@H](Cc3ccccc3)NC(=O)OC(C)(C)C)N2Cc2ccccc2)c(C)c2c1OC(C)(C)C2 |  | 5.26 µM | 1.24 µM | 6.83 µM
12 | CC(C)(C)OC(=O)NCCCC[C@@H]1N[C@H]([C@H](Cc2cn(C(=O)OC(C)(C)C)c3ccccc23)NC(=O)OC(C)(C)C)CNC1=O | inactive | 5.43 µM | 9.75 µM | 5.31 µM
13 | Cc1c(C)c(S(=O)(=O)/N=C(/N)NCCC[C@H]2C(=O)N(Cc3ccccc3)C[C@@H]([C@H](Cc3cn(C(=O)OC(C)(C)C)c4ccccc34)NC(=O)OC(C)(C)C)N2CC(=O)OC(C)(C)C)c(C)c2c1OC(C)(C)C2 | Active |  |  | 
14 | Cc1c(C)c(S(=O)(=O)/N=C(/N)NCCC[C@H]2C(=O)NC[C@@H]([C@H](Cc3cn(C(=O)OC(C)(C)C)c4ccccc34)NC(=O)OC(C)(C)C)N2CC(=O)OC(C)(C)C)c(C)c2c1OC(C)(C)C2 |  | 2.92 µM | 7.68 µM | 4.87 µM
15 | Cc1c(C)c(S(=O)(=O)/N=C(/N)NCCC[C@H]2C(=O)N(Cc3ccccc3)C[C@@H](CCc3cn(C(=O)OC(C)(C)C)c4ccccc34)N2Cc2ccccc2)c(C)c2c1OC(C)(C)C2 | Active |  |  | 
16 | CC(C)(C)OC(=O)NCCCC[C@H]1C(=O)N(Cc2ccccc2)C[C@H]([C@H](Cc2cn(C(=O)OC(C)(C)C)c3ccccc23)NC(=O)OC(C)(C)C)N1Cc1ccccc1 | inactive | > 10 µM | > 10 µM | 3.33 µM
17 | CC(C)(C)OC(=O)NCCCC[C@@H]1N[C@@H]([C@H](Cc2cn(C(=O)OC(C)(C)C)c3ccccc23)NC(=O)OC(C)(C)C)CNC1=O | inactive | 5.43 µM | > 10 µM | 5.56 µM

Row | SMILES | inhibition [1] | GI50 (HT-29) | GI50 (A549) | GI50 (MDA-MB-231)
18 | Cc1c(C)c(S(=O)(=O)/N=C(\N)NCCC[C@H]2C(=O)N(Cc3ccccc3)C[C@@H]([C@H](Cc3ccccc3)NC(=O)OC(C)(C)C)N2CC(=O)OC(C)(C)C)c(C)c2c1OC(C)(C)C2 | Active |  |  | 
19 | Cc1c(C)c(S(=O)(=O)/N=C(/N)NCCC[C@H]2C(=O)N(Cc3ccccc3)C[C@H]([C@H](Cc3cn(C(=O)OC(C)(C)C)c4ccccc34)NC(=O)OC(C)(C)C)N2CC(=O)OC(C)(C)C)c(C)c2c1OC(C)(C)C2 | Active |  |  | 
20 | CC(C)(C)OC(=O)CN1[C@@H](CCCCNC(=O)OC(C)(C)C)C(=O)N(Cc2ccccc2)C[C@H]1[C@H](Cc1cn(C(=O)OC(C)(C)C)c2ccccc12)NC(=O)OC(C)(C)C | inactive |  |  | 
21 | Cc1c(C)c(S(=O)(=O)/N=C(/N)NCCC[C@H]2C(=O)N(Cc3ccccc3)C[C@@H]([C@H](Cc3cn(C(=O)OC(C)(C)C)c4ccccc34)NC(=O)OC(C)(C)C)N2Cc2ccccc2)c(C)c2c1OC(C)(C)C2 | Active |  |  | 
22 | CC(C)(C)OC(=O)CN1[C@@H]([C@H](Cc2cn(C(=O)OC(C)(C)C)c3ccccc23)NC(=O)OC(C)(C)C)CN(Cc2ccccc2)C(=O)[C@@H]1CCCCNC(=O)OC(C)(C)C | inactive | 4.44 µM | > 10 µM | 1.56 µM
23 | Cc1c(C)c(S(=O)(=O)/N=C(/N)NCCC[C@H]2C(=O)NC[C@@H]([C@H](Cc3cn(C(=O)OC(C)(C)C)c4ccccc34)NC(=O)OC(C)(C)C)N2Cc2ccccc2)c(C)c2c1OC(C)(C)C2 |  | 3.78 µM | 5.55 µM | 4.55 µM
24 | Cc1c(C)c(S(=O)(=O)/N=C(\N)NCCC[C@H]2C(=O)N(Cc3ccccc3)C[C@H]([C@H](Cc3c[nH]c4ccccc34)NC(=O)NCc3ccccc3)N2Cc2ccccc2)c(C)c2c1OC(C)(C)C2 | Active |  |  | 
25 | Cc1c(C)c(S(=O)(=O)/N=C(/N)NCCC[C@H]2C(=O)NC[C@H]([C@H](Cc3cn(C(=O)OC(C)(C)C)c4ccccc34)NC(=O)OC(C)(C)C)N2CC(=O)OC(C)(C)C)c(C)c2c1OC(C)(C)C2 |  | 4.98 µM | 3.25 µM | 4.54 µM
26 | Cc1c(C)c(S(=O)(=O)/N=C(/N)NCCC[C@H]2C(=O)N(Cc3ccccc3)C[C@H]([C@H](Cc3cn(C(=O)OC(C)(C)C)c4ccccc34)NC(=O)OC(C)(C)C)N2Cc2ccccc2)c(C)c2c1OC(C)(C)C2 | Active |  |  | 
27 | Cc1c(C)c(S(=O)(=O)/N=C(/N)NCCC[C@H]2C(=O)NC[C@@H]([C@H](Cc3ccccc3)NC(=O)OC(C)(C)C)N2Cc2ccccc2)c(C)c2c1OC(C)(C)C2 |  | 3.29 µM | 5.39 µM | 6.04 µM
28 | Cc1c(C)c(S(=O)(=O)/N=C(/N)NCCC[C@H]2C(=O)N(Cc3ccccc3)C[C@H](CCc3cn(C(=O)OC(C)(C)C)c4ccccc34)N2Cc2ccccc2)c(C)c2c1OC(C)(C)C2 | Active |  |  | 
29 | Cc1c(C)c(S(=O)(=O)/N=C(\N)NCCC[C@H]2C(=O)N(Cc3ccccc3)C[C@@H]([C@H](Cc3ccccc3)NC(=O)OC(C)(C)C)N2Cc2ccccc2)c(C)c2c1OC(C)(C)C2 | Active |  |  | 
30 | COc1cccc2c1C(=O)c1c(O)c3c(c(O)c1C2=O)C[C@@](O)(C(=O)CO)C[C@@H]3O[C@H]1C[C@H](N)[C@H](O)[C@H](C)O1 [DOXORUBICIN] |  | 0.1 µM | 0.07 µM | 0.09 µM
31 | Cc1c(C)c(S(=O)(=O)/N=C(\N)NCCC[C@H]2C(=O)N(Cc3ccccc3)C[C@H]([C@H](Cc3ccccc3)NC(=O)NCc3ccccc3)N2Cc2ccccc2)c(C)c2c1OC(C)(C)C2 | Active |  |  | 
32 | CC(C)(C)OC(=O)CN1[C@@H](CCCCNC(=O)OC(C)(C)C)C(=O)NC[C@H]1[C@H](Cc1cn(C(=O)OC(C)(C)C)c2ccccc12)NC(=O)OC(C)(C)C | inactive | 5.78 µM | 8.6 µM | 6.72 µM
33 | Cc1c(C)c(S(=O)(=O)/N=C(/N)NCCC[C@H]2C(=O)N(Cc3ccccc3)C[C@@H](CCc3ccccc3)N2Cc2ccccc2)c(C)c2c1OC(C)(C)C2 | Active |  |  | 
